The experiment deals with human engineered cardiac tissues (human iPSC derived cardiomyocytes co-cultured with human cardiac fibroblasts). Kind of experiment: Drug testing of engineered cardiac tissues in Biowire II 96-well plate under electrical pacing (contractile dynamics by wire displacement). It counts as cell-based. The settings on record: day 19 tissues, n=2 (FIG. 7H). How it is done: To generate cardiac tissues, human iPSC derived cardiomyocytes co-cultured with human cardiac fibroblasts were seeded with hydrogel in the 96-well plate device. Tissue compaction in the first seven days was observed (FIG. 7A, FIG. 7B), with dramatic change in the first two days followed by stabilization after day 3. Electrical field stimulation of cardiac tissues was initiated at day 7 and continued for the additional 12 days. […] Thapsigargin (50×10^-6 m), an inhibitor of sarcoplasmic reticulum function in cardiomyocytes, was added in the presence of electrical pacing (1.5 Hz), resulting in a prolonged tissue contraction and relaxation time (FIG. 7H). […] Predominantly ventricular cardiomyocytes (CMs) were derived from the hiPSC line BJ1D, using monolayer differentiation protocols as previously described. At day 21 of differentiation, cardiomyocytes were disassociated into single cells with previously established methods. Briefly, 1 mg mL^-1 of collagenase type II (Worthington, LS004205) in Hank's Balanced Salt Solution was added to the monolayer cardiomyocyte cultures and incubated overnight at room temperature. The disassociated cells were mixed with cardiac fibroblasts (Lonza, NHCF-V) in a 10:1 cell number ratio. The mixed cells were pelleted and remixed in collagen hydrogel at 5.5×10^7 cells mL^-1. The cell-gel mixture was seeded at […] per microwell. A droplet of media was placed on the wall of the well to keep the moisture until gelation was complete. The plate was incubated at 37° C. and 5% CO2 for 10 min followed by media addition. […] Average tissue width and width of the tissue (Tw), attachment site to the polymer sensor were measured using bright field images at the relaxed state. Passive displacement of polymer sensors was assessed in blue channel. […] The final readouts for the total and passive forces were interpolated according to the Tw and custom tip sizes. […] With built-in force sensor and electrodes, tissues were able to be assessed in situ in terms of their contractile dynamics and drug responses. […] The videos were analyzed using the custom MATLAB software. […]

[1] abbreviates: 50×10^−6 m, electrical pacing 1.5 Hz, video 15 min after addition.

With `C/C=C(/C)C(=O)O[C@H]1C(C)=C2[C@H]([C@@H]1OC(=O)CCCCCCC)[C@@](C)(OC(C)=O)C[C@H](OC(=O)CCC)[C@@]1(O)[C@H]2OC(=O)[C@@]1(C)O` [Thapsigargin], under setting [1], the tissue contraction time entry was “prolonged” and the tissue relaxation time result is recorded as “prolonged”. Besides, the “frequency of tissue beating” value (thapsigargin 50 µM, constant stimulation frequency 1.5 Hz) was “decreased by half”.
